pIC50: −log10 of the molar value.
Legend:
[1] = biological target: T1, Caspase-1 (Homo sapiens, UniProt P29466); assay: Inhibitory activity against caspase-1
T1 sequence (P29466 whole entry): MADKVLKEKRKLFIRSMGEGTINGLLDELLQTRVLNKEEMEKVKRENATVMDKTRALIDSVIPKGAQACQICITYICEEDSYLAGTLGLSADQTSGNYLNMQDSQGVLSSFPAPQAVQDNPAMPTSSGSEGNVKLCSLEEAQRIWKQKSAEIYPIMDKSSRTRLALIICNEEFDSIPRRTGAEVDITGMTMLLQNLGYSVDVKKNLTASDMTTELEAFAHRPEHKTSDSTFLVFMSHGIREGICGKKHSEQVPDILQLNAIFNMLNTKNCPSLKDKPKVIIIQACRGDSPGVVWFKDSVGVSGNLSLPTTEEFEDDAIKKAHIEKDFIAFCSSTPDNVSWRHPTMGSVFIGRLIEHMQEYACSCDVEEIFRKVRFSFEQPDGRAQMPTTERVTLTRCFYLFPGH

[2] = biological target: T2, Caspase-7 (Homo sapiens, UniProt P55210); assay: Inhibitory activity against caspase-7
T2 sequence (P55210 whole entry): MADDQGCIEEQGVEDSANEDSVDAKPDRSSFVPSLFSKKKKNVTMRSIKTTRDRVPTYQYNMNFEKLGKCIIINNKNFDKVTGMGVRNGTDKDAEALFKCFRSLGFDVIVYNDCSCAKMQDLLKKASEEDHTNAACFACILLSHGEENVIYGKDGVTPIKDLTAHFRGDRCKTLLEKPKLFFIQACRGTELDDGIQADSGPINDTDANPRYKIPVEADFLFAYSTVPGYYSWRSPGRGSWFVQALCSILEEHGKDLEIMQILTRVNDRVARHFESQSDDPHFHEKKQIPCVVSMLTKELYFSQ

[3] = biological target: T3, Caspase-3 (Homo sapiens, UniProt P42574); assay: Inhibitory activity against caspase-3
T3 sequence (P42574 whole entry): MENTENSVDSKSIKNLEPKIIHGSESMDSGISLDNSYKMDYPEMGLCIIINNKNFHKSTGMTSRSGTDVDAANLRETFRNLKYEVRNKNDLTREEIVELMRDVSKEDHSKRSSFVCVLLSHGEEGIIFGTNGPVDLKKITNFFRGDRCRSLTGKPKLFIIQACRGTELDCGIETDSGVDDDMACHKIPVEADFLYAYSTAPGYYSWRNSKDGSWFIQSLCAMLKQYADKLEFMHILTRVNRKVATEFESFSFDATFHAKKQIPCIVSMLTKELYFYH

[4] = biological target: Caspase-8 (Homo sapiens, UniProt Q14790); assay: Inhibitory activity against caspase-8
Sequence of Caspase-8 (Q14790 217-374 limits assumed): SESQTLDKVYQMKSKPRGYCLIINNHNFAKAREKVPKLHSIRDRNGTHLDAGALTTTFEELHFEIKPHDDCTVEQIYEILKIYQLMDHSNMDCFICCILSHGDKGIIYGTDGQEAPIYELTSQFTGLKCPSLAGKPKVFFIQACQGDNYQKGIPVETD
Sequence of Caspase-8 (Q14790 385-479 limits assumed): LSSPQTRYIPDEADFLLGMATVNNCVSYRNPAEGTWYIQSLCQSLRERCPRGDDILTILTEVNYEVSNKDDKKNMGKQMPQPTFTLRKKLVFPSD

[5] = test system: NT2; assay: Inhibitory activity against NT2 cells; format: functional, cell-based; details: Homo sapiens

| Structure (SMILES) | pIC50 [1] | pIC50 [2] | pIC50 [3] | pIC50 [4] | pIC50 [5] |
| --- | --- | --- | --- | --- | --- |
| COc1ccccc1CC(=O)N[C@H](C(=O)N[C@@H](CC(=O)O)C(=O)CSCc1ccccc1)C(C)C | 4.55 | 5.57 | 6.51 | 4.81 |  |
| COc1ccc(OC)c(CC(=O)N[C@H](C(=O)N[C@@H](CC(=O)O)C(=O)CSCc2ccccc2)C(C)C)c1 | 5.22 | 5.49 | 7.32 | 5.18 | 5.00 |
| COc1ccc(S(C)(=O)=O)cc1CC(=O)N[C@H](C(=O)N[C@@H](CC(=O)O)C(=O)CSCc1c(F)cccc1Cl)C(C)C | 5.80 | 6.92 | 8.30 | 6.31 | 6.00 |
| CC(C)[C@H](NC(=O)c1cc(Br)cc(Br)c1)C(=O)N[C@@H](CC(=O)O)C(=O)CSCc1ccccc1 | 6.07 | 5.82 | 6.85 | 5.06 | 4.20 |
| COc1ccc(C(C)=O)cc1CC(=O)N[C@H](C(=O)N[C@@H](CC(=O)O)C(=O)CSCc1ccccc1)C(C)C | 5.23 | 6.89 | 8.00 | 5.54 | 5.70 |
| COc1ccc(OC)c(CC(=O)N[C@H](C(=O)N[C@@H](CC(=O)O)C(=O)CSCc2c(F)cccc2Cl)C(C)C)c1 | 5.30 | 5.60 | 7.14 | 5.62 | 5.05 |
| CCOc1ccc(OCC(=O)O)cc1CC(=O)N[C@H](C(=O)N[C@@H](CC(=O)O)C(=O)CSCc1c(F)cccc1Cl)C(C)C | 5.42 | 6.44 | 8.30 | 6.09 | 5.30 |
| CCOc1ccc(OCC(=O)OC(C)C)cc1CC(=O)N[C@H](C(=O)N[C@@H](CC(=O)O)C(=O)CSCc1c(F)cccc1Cl)C(C)C | 5.38 | 5.64 | 7.03 | 5.20 | 6.52 |
| CC(C)[C@H](NC(=O)c1cc2cc(F)ccc2[nH]1)C(=O)N[C@@H](CC(=O)O)C(=O)CSCc1ccccc1 | 5.59 | 5.85 | 7.08 | 5.48 | 4.26 |
| COc1cccc(CC(=O)N[C@H](C(=O)N[C@@H](CC(=O)O)C(=O)CSCc2ccccc2)C(C)C)c1 | 4.85 | 5.51 | 6.68 | 4.85 | 4.22 |
| CC(C)[C@H](NC(=O)[C@H](C)NC(=O)[C@H](CC(=O)O)NC(=O)c1ccccc1)C(=O)N[C@@H](CC(=O)O)C(=O)CCCc1ccccc1 | 5.78 | 8.08 | 8.74 | 5.82 | 4.85 |
| CCOc1ccc(OCC(=O)OC)cc1CC(=O)N[C@H](C(=O)N[C@@H](CC(=O)O)C(=O)CSCc1c(F)cccc1Cl)C(C)C | 5.19 | 5.77 | 7.28 | 5.03 | 6.15 |
| COc1ccc(OC)c(CC(=O)N[C@H](C(=O)N[C@@H](CC(=O)O)C(=O)CSCC2CCCCC2)C(C)C)c1 | 5.74 | < 5.00 | 7.20 | 5.70 | 4.72 |
| CC(C)[C@H](NC(=O)Cc1ccccc1)C(=O)N[C@@H](CC(=O)O)C(=O)CSCc1ccccc1 | 4.66 | 5.08 | 6.12 | 4.65 |  |
| COc1ccc(OC)c(CC(=O)N[C@H](C(=O)N[C@@H](CC(=O)O)C(=O)CSCC(C)C)C(C)C)c1 | 5.59 | 5.74 | 6.89 | 5.11 | 4.49 |
| CC(=O)N[C@@H](CC(=O)O)C(=O)N[C@@H](CCC(=O)O)C(=O)N[C@H](C(=O)N[C@H](C=O)CC(=O)O)C(C)C | 6.72 | 7.06 |  | 6.89 | < 4.00 |
| CCOc1ccc(/C=C/C(=O)OC)cc1CC(=O)N[C@H](C(=O)N[C@@H](CC(=O)O)C(=O)CSCc1c(F)cccc1Cl)C(C)C | 5.74 | 7.62 |  | 5.41 | 6.22 |
| COc1ccc(Br)cc1CC(=O)N[C@H](C(=O)N[C@@H](CC(=O)O)C(=O)CSCc1ccccc1)C(C)C | 5.51 | 5.51 | 7.22 | 5.64 | 5.05 |
